In US12540131B2 (Merck Sharp & Dohme LLC, priority 2019, dated 2026):

Molecular target: GST tagged truncated human mutant G2019S LRRK2 (Homo sapiens (Human), UniProt Q5S007, G2019S)
Assay: LRRK2 Km ATP LanthaScreen Assay
Assay type: biochemical
Settings: G2019S LRRK2, 134 μM ATP (Km ATP), mean values; for IC50: read-out: LRRK2 pIC50 (converted)
Method in brief: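 Enzyme (GST-tagged, truncated) was preincubated with compound for 15 min at RT in 50 mM Tris pH 8.5, 10 mM MgCl2, 0.01% Brij-35, 1 mM EGTA, 2 mM DTT and 0.05 mM orthovanadate. Fluorescein-LRRKtide and 134 μM ATP (Km) were then added for 90 min. EDTA and Tb-anti-pERM antibody stopped the reaction; the TR-FRET 520/495 ratio gave 4-parameter IC50s, reported as mean pIC50.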

Chain of GST tagged truncated human mutant G2019S LRRK2 (Q5S007 970-2527 G2019S): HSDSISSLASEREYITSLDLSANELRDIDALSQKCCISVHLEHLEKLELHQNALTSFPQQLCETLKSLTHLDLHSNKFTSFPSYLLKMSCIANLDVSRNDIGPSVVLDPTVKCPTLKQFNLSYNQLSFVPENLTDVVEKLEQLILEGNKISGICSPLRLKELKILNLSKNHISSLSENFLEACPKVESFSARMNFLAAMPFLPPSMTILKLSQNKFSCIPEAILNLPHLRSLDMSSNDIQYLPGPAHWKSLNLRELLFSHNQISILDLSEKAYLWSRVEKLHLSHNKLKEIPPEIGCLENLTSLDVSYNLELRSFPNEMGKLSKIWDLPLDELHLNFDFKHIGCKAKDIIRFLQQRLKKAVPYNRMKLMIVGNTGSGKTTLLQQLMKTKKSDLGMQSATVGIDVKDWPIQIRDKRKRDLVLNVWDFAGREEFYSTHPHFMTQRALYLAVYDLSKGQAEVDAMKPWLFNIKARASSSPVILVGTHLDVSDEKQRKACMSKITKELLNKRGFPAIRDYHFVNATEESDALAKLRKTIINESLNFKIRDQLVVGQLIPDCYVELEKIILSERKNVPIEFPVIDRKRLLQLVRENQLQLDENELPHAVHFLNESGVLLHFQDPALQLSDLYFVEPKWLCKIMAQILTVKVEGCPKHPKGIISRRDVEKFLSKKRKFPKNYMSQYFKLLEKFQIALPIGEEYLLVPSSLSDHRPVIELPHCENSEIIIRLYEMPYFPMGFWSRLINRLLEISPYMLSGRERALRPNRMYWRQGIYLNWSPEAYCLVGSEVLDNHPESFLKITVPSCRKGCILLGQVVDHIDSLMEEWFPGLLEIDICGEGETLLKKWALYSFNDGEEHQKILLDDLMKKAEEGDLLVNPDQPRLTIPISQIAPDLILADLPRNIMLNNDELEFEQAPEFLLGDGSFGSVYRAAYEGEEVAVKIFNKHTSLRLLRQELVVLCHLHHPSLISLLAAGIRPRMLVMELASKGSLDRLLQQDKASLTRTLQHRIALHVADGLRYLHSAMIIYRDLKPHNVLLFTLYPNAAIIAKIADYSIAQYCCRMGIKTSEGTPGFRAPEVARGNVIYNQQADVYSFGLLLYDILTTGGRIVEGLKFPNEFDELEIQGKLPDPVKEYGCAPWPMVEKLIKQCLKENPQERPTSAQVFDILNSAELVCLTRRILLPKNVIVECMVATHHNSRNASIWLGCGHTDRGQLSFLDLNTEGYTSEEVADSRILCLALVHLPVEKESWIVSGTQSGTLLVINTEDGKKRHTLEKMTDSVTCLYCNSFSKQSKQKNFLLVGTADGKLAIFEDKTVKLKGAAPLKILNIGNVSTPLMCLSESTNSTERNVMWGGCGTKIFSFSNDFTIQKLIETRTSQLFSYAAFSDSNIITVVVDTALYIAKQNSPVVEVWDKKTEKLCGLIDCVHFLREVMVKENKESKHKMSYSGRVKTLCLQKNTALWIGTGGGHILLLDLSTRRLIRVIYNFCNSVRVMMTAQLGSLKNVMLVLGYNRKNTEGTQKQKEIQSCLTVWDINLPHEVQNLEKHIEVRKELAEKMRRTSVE

Row | Structure (SMILES) | LRRK2 pIC50 | IC50 [nM]
1 | CN1CC[C@H](c2cc3nc(Nc4cnn(CC(C)(C)O)c4Cl)ncc3cc2Cl)[C@@H](F)C1 (single isomer, unassigned) [Ex-4.23, (3S,4S) or (3R,4R) 1-(5-chloro-4-{[6-chloro-7-(3-fluoro-1-methylpiperidin-4-yl)quinazolin-2-yl]amino}-1H-pyrazol-1-yl)-2-methylpropan-2-ol] | 9.08 | –
2 | CC1(n2ncc(Nc3ncc4cc(Cl)c(C5CCN(C6COC6)C5)cc4n3)c2Cl)CC1 (single isomer, unassigned) [Ex-4.25, (S) or (R) 6-chloro-N-[5-chloro-1-(1-methylcyclopropyl)-1H-pyrazol-4-yl]-7-[1-(oxetan-3-yl)pyrrolidin-3-yl]quinazolin-2-amine] | – | 3.09
3 | CC1(n2ncc(Nc3ncc4cc(Cl)c(C5CCN(C6COC6)C5)cc4n3)c2Cl)CC1 (single isomer, unassigned) [Ex-4.26, (S) or (R) 6-chloro-N-[5-chloro-1-(1-methylcyclopropyl)-1H-pyrazol-4-yl]-7-[1-(oxetan-3-yl)pyrrolidin-3-yl]quinazolin-2-amine] | – | 4.9
4 | CC1(n2ncc(Nc3ncc4cc(Cl)c([C@@H]5CCN(C6COC6)C[C@H]5F)cc4n3)c2Cl)CC1 (single isomer, unassigned) [Ex-4.27, (3S,4S) or (3R,4R) 6-chloro-N-[5-chloro-1-(1-methylcyclopropyl)-1H-pyrazol-4-yl]-7-[3-fluoro-1-(oxetan-3-yl)piperidin-4-yl]quinazolin-2-amine] | >9.20 | –
5 | CC1(n2ncc(Nc3ncc4cc(Cl)c([C@H]5CCN(C6COC6)C[C@@H]5F)cc4n3)c2Cl)CC1 (single isomer, unassigned) [Ex-4.28, (3S,4S) or (3R,4R) 6-chloro-N-[5-chloro-1-(1-methylcyclopropyl)-1H-pyrazol-4-yl]-7-[3-fluoro-1-(oxetan-3-yl)piperidin-4-yl]quinazolin-2-amine] | >9.20 | –
6 | CN1CC[C@@H](c2cc3nc(Nc4cnn(C5(C)CC5)c4Cl)ncc3cc2Cl)[C@H](O)C1 (single isomer, unassigned) [Ex-4.29, (3S,4S) or (3R,4R) 4-(6-chloro-2-{[5-chloro-1-(1-methylcyclopropyl)-1H-pyrazol-4-yl]amino}quinazolin-7-yl)-1-methylpiperidin-3-ol] | 8.07 | –
7 | CN1CC[C@H](c2cc3nc(Nc4cnn(C5(C)CC5)c4Cl)ncc3cc2Cl)[C@@H](O)C1 (single isomer, unassigned) [Ex-4.30, (3S,4S) or (3R,4R) 4-(6-chloro-2-{[5-chloro-1-(1-methylcyclopropyl)-1H-pyrazol-4-yl]amino}quinazolin-7-yl)-1-methylpiperidin-3-ol] | 7.32 | –
8 | Clc1cc2cnc(Nc3cnn(C4CC4)c3Cl)nc2cc1C1CCN(C2COC2)C1 (single isomer, unassigned) [Ex-4.32, (S) or (R) 6-chloro-N-(5-chloro-1-cyclopropyl-1H-pyrazol-4-yl)-7-[1-(oxetan-3-yl)pyrrolidin-3-yl]quinazolin-2-amine] | – | 16.6
9 | Clc1cc2cnc(Nc3cnn(C4CC4)c3Cl)nc2cc1C1CCN(C2COC2)C1 (single isomer, unassigned) [Ex-4.33, (S) or (R) 6-chloro-N-(5-chloro-1-cyclopropyl-1H-pyrazol-4-yl)-7-[1-(oxetan-3-yl)pyrrolidin-3-yl]quinazolin-2-amine] | – | 8.13
10 | F[C@@H]1CN(C2COC2)CC[C@H]1c1cc2nc(Nc3cnn(C4CC4)c3Cl)ncc2cc1Cl (single isomer, unassigned) [Ex-4.34, (3S,4S) or (3R,4R) 6-chloro-N-(5-chloro-1-cyclopropyl-1H-pyrazol-4-yl)-7-[3-fluoro-1-(oxetan-3-yl)piperidin-4-yl]quinazolin-2-amine] | 9.12 | –
11 | F[C@H]1CN(C2COC2)CC[C@@H]1c1cc2nc(Nc3cnn(C4CC4)c3Cl)ncc2cc1Cl (single isomer, unassigned) [Ex-4.35, (3S,4S) or (3R,4R) 6-chloro-N-(5-chloro-1-cyclopropyl-1H-pyrazol-4-yl)-7-[3-fluoro-1-(oxetan-3-yl)piperidin-4-yl]quinazolin-2-amine] | >9.20 | –
12 | FC(F)Cn1ncc(Nc2ncc3cc(Cl)c([C@@H]4CCN(C5COC5)C[C@H]4F)cc3n2)c1Cl (single isomer, unassigned) [Ex-4.37, (3S,4S) or (3R,4R) 6-chloro-N-[5-chloro-1-(2,2-difluoroethyl)-1H-pyrazol-4-yl]-7-[3-fluoro-1-(oxetan-3-yl)piperidin-4-yl]quinazolin-2-amine] | 9.15 | –
13 | FC(F)Cn1ncc(Nc2ncc3cc(Cl)c([C@H]4CCN(C5COC5)C[C@@H]4F)cc3n2)c1Cl (single isomer, unassigned) [Ex-4.38, (3S,4S) or (3R,4R) 6-chloro-N-[5-chloro-1-(2,2-difluoroethyl)-1H-pyrazol-4-yl]-7-[3-fluoro-1-(oxetan-3-yl)piperidin-4-yl]quinazolin-2-amine] | 9.11 | –
14 | CN1CC[C@@H](c2cc3nc(Nc4cnn(C5CC5)c4Cl)ncc3cc2Cl)[C@H](F)C1 (single isomer, unassigned) [Ex-4.39, (3S,4S) or (3R,4R) 6-chloro-N-(5-chloro-1-cyclopropyl-1H-pyrazol-4-yl)-7-(3-fluoro-1-methylpiperidin-4-yl)quinazolin-2-amine] | >9.20 | –
15 | CN1CC[C@H](c2cc3nc(Nc4cnn(C5CC5)c4Cl)ncc3cc2Cl)[C@@H](F)C1 (single isomer, unassigned) [Ex-4.40, (3S,4S) or (3R,4R) 6-chloro-N-(5-chloro-1-cyclopropyl-1H-pyrazol-4-yl)-7-(3-fluoro-1-methylpiperidin-4-yl)quinazolin-2-amine] | >9.20 | –
16 | F[C@H]1CN(C2COC2)C[C@@H]1c1cc2nc(Nc3cnn(C4CC4)c3Cl)ncc2cc1Cl (single isomer, unassigned) [Ex-4.41, (3S,4R) or (3R,4S) 6-chloro-N-(5-chloro-1-cyclopropyl-1H-pyrazol-4-yl)-7-[4-fluoro-1-(oxetan-3-yl)pyrrolidin-3-yl]quinazolin-2-amine] | 7.31 | –
17 | F[C@@H]1CN(C2COC2)C[C@H]1c1cc2nc(Nc3cnn(C4CC4)c3Cl)ncc2cc1Cl (single isomer, unassigned) [Ex-4.42, (3S,4R) or (3R,4S) 6-chloro-N-(5-chloro-1-cyclopropyl-1H-pyrazol-4-yl)-7-[4-fluoro-1-(oxetan-3-yl)pyrrolidin-3-yl]quinazolin-2-amine] | 7.21 | –
18 | CC(C)(O)Cn1ncc(Nc2ncc3cc(Cl)c([C@@H]4CCN(C5COC5)C[C@H]4F)cc3n2)c1Cl (single isomer, unassigned) [Ex-4.43, (3S,4S) or (3R,4R) 1-[5-chloro-4-({6-chloro-7-[3-fluoro-1-(oxetan-3-yl)piperidin-4-yl]quinazolin-2-yl}amino)-1H-pyrazol-1-yl]-2-methylpropan-2-ol] | 9.16 | –
19 | CC(C)(O)Cn1ncc(Nc2ncc3cc(Cl)c([C@H]4CCN(C5COC5)C[C@@H]4F)cc3n2)c1Cl (single isomer, unassigned) [Ex-4.44, (3S,4S) or (3R,4R) 1-[5-chloro-4-({6-chloro-7-[3-fluoro-1-(oxetan-3-yl)piperidin-4-yl]quinazolin-2-yl}amino)-1H-pyrazol-1-yl]-2-methylpropan-2-ol] | >9.20 | –
